# Source: ChEMBL document CHEMBL3868640, “1,2,4-Triazolidine-3-thiones as Narrow Spectrum Antibiotics against Multidrug-Resistant Acinetobacter baumannii” (ACS Med Chem Lett, 2017)
# Tests used:
# Acinetobacter baumannii [1] = test: Antimicrobial activity against multi drug-resistant Acinetobacter baumannii AB4878 after 16 hrs by microbroth dilution method; type: functional; settings: AB4878, 16 h
# Acinetobacter baumannii [2] = test: Antimicrobial activity against multi drug-resistant Acinetobacter baumannii AB3785 after 16 hrs by microbroth dilution method; type: functional; settings: AB3785, 16 h
# Acinetobacter baumannii [3] = test: Antimicrobial activity against multi drug-resistant Acinetobacter baumannii AB3806 after 16 hrs by microbroth dilution method; type: functional; settings: AB3806, 16 h
# Acinetobacter baumannii [4] = test: Antimicrobial activity against multi drug-resistant Acinetobacter baumannii AB4957 after 16 hrs by microbroth dilution method; type: functional; settings: AB4957, 16 h
# Acinetobacter baumannii [5] = test: Antimicrobial activity against multi drug-resistant Acinetobacter baumannii BAA1605 after 16 hrs by microbroth dilution method; type: functional; settings: BAA1605, 16 h
# Acinetobacter baumannii [6] = test: Antimicrobial activity against multi drug-resistant Acinetobacter baumannii AB3638 after 16 hrs by microbroth dilution method; type: functional; settings: AB3638, 16 h
# Acinetobacter baumannii [7] = test: Bactericidal activity against extensively drug-resistant Acinetobacter baumannii AB5075 assessed as log reduction in bacterial count at 4 to 16 ug/ml measured up to 24 hrs by time kill assay; type: functional
# Acinetobacter baumannii [8] = test: Antimicrobial activity against extensively drug-resistant Acinetobacter baumannii AB5075 in 0.02% linoleic acid supplemented media after 16 hrs by microbroth dilution method; type: functional; settings: AB5075, 16 h
# Klebsiella pneumoniae = test: Antimicrobial activity against Klebsiella pneumoniae after 16 hrs by microbroth dilution method; type: functional
# Escherichia coli = test: Antimicrobial activity against Escherichia coli after 16 hrs by microbroth dilution method; type: functional
# Pseudomonas aeruginosa = test: Antimicrobial activity against Pseudomonas aeruginosa after 16 hrs by microbroth dilution method; type: functional
# Staphylococcus aureus = test: Antimicrobial activity against methicillin-resistant Staphylococcus aureus after 16 hrs by microbroth dilution method; type: functional
# [9] = Drug degradation in cation adjusted Mueller-Hinton broth after 16 hrs by liquid chromatography; type: physicochemical
# [10] = Half life in cation adjusted Mueller-Hinton broth by liquid chromatography; type: physicochemical
# [11] = Hemolytic activity against sheep RBC up to 512 ug/ml after 1 hr by UV spectrometric analysis; type: ADME, cell-based, Ovis aries; settings: erythrocyte
# Acinetobacter baumannii [12] = test: Antibacterial activity against Acinetobacter baumannii AB5075 infected in Galleria mellonella assessed as protection against bacterial infection by measuring survival of host at 50 mg/kg after 6 days relative to control; type: functional; settings: AB5075, 144 h
# Acinetobacter baumannii [13] = test: Antibacterial activity against Acinetobacter baumannii AB5075 infected in Galleria mellonella assessed as protection against bacterial infection by measuring survival of host at 100 mg/kg after 6 days relative to control; type: functional; settings: AB5075, 144 h
# Acinetobacter baumannii [14] = test: Antibacterial activity against Acinetobacter baumannii AB5075 infected in Galleria mellonella assessed as worm survival at 50 mg/kg after 3 days relative to control; type: functional; settings: AB5075, 72 h
# Acinetobacter baumannii [15] = test: Antibacterial activity against Acinetobacter baumannii AB5075 infected in Galleria mellonella assessed as worm survival at 100 mg/kg after 3 days relative to control; type: functional; settings: AB5075, 72 h
# Acinetobacter baumannii [16] = test: Antimicrobial activity against extensively drug-resistant Acinetobacter baumannii AB5075 after 16 hrs by microbroth dilution method; type: functional; settings: AB5075, 16 h
Structure (SMILES),MIC (Acinetobacter baumannii [16]) [µg/mL],further results
CC1(C)NC(=S)N(c2ccc(Cl)cc2)N1,–,MIC (Acinetobacter baumannii [1]): 2 µg/mL; MIC (Acinetobacter baumannii [2]): 1 µg/mL; MIC (Acinetobacter baumannii [3]): 1 µg/mL; MIC (Acinetobacter baumannii [4]): 2 µg/mL; MIC (Acinetobacter baumannii [5]): 2 µg/mL; MIC (Acinetobacter baumannii [6]): 1 µg/mL; log reduction (Acinetobacter baumannii [7]): > 6 log10 CFU/mL; MIC (Acinetobacter baumannii [8]): > 128 µg/mL; MIC (Klebsiella pneumoniae): ≥ 128 µg/mL; MIC (Escherichia coli): ≥ 128 µg/mL; MIC (Pseudomonas aeruginosa): ≥ 128 µg/mL; MIC (Staphylococcus aureus): ≥ 128 µg/mL; Stability [9]: Unstable; half-life [10]: 2.5 h; Activity [11]: Non-Toxic; survival at 50 mg/kg (Acinetobacter baumannii [12]): 22%; survival at 100 mg/kg (Acinetobacter baumannii [13]): 32%; survival at 50 mg/kg (Acinetobacter baumannii [14]): 42.5%; survival at 100 mg/kg (Acinetobacter baumannii [15]): 45%
CC1NC(=S)N(c2ccccc2)N1 (stereo unspecified),> 128,–
CC1(C)NC(=S)N(c2ccccc2)N1,8,–
CCC1(CC)NC(=S)N(c2ccccc2)N1,8,–
CCC1(CC)NC(=S)N(c2cccc(F)c2)N1,8,–
CC1(C)NNC(=S)N1c1ccc(Cl)cc1,> 128,–
CCC1(CC)NC(=S)N(c2ccc(Cl)c(Cl)c2)N1,> 128,–
CCC1(CC)NC(=S)N(c2ccc(Cl)cc2)N1,2,MIC (Acinetobacter baumannii [1]): 4 µg/mL; MIC (Acinetobacter baumannii [2]): 4 µg/mL; MIC (Acinetobacter baumannii [3]): 4 µg/mL; MIC (Acinetobacter baumannii [4]): 4 µg/mL; MIC (Acinetobacter baumannii [5]): 4 µg/mL; MIC (Acinetobacter baumannii [6]): 4 µg/mL
CCC1(CC)NC(=S)N(c2ccc(I)cc2)N1,8,–
CSC1=NC(C)(C)NN1c1ccc(Cl)cc1,> 128,–
CCC1(CC)NC(=S)N(c2ccc(F)cc2)N1,4,–
S=C1NC(c2ccccc2)NN1c1ccccc1 (stereo unspecified),64,–
CCC1NC(=S)N(c2ccccc2)N1 (stereo unspecified),> 128,–
CC1(C)N=C(SCc2ccccc2)N(c2ccc(Cl)cc2)N1,> 128,–
CCCC1NC(=S)N(c2ccccc2)N1 (stereo unspecified),64,–
CCC1(CC)NC(=S)N(c2ccc(Br)cc2)N1,4,–
CCC1(CC)NC(=S)N(c2ccc(C#N)cc2)N1,> 128,–
CCC1(CC)NC(=S)N(c2ccc([N+](=O)[O-])cc2)N1,> 128,–

Structure (SMILES),MIC (Acinetobacter baumannii [16]) [µg/mL],further results
CCC1(CC)NC(=S)N(c2ccc(C(C)C)cc2)N1,> 128,–
CCC1(CC)NC(=S)N(c2ccccc2Cl)N1,128,–
CCC1(CC)NC(=S)N(c2ccccc2F)N1,32,–
CCCCN1N(c2ccc(Cl)cc2)C(=S)NC1(C)C,> 128,–
CCC1(CC)NC(=S)N(c2ccc(C(F)(F)F)cc2)N1,> 128,–
CC(C)C1(C)NC(=S)N(c2ccccc2)N1 (stereo unspecified),8,–
CCCC1(C)NC(=S)N(c2ccccc2)N1 (stereo unspecified),16,–
CCCC1(CC)NC(=S)N(c2ccccc2)N1 (stereo unspecified),32,–
CCC1(C)NC(=S)N(c2ccccc2)N1 (stereo unspecified),8,MIC (Acinetobacter baumannii [1]): 8 µg/mL; MIC (Acinetobacter baumannii [2]): 4 µg/mL; MIC (Acinetobacter baumannii [3]): 4 µg/mL; MIC (Acinetobacter baumannii [4]): 8 µg/mL; MIC (Acinetobacter baumannii [5]): 8 µg/mL; MIC (Acinetobacter baumannii [6]): 4 µg/mL
SC1=NC2(CCCCC2)NN1c1ccccc1,8,–
S=C1NC2(CCCC2)NN1c1ccccc1,8,–
CC1(c2ccccc2)NC(=S)N(c2ccccc2)N1 (stereo unspecified),> 128,–
CCC1(CC)NC(=S)N(c2ccc(F)c(Cl)c2)N1,32,–
CCC1(CC)NC(=S)N(c2cc(F)cc(F)c2)N1,> 128,–
CCCC1(CCC)NC(=S)N(c2ccccc2)N1,32,–
CN1N(c2ccc(Cl)cc2)C(=S)NC1(C)C,> 128,–
CCC1(CC)NC(=S)N(c2cccc(Cl)c2)N1,8,–
CCC1(C(C)C)NC(=S)N(c2ccccc2)N1 (stereo unspecified),32,–
